Patent publication EP2316926B1, “Enantioselective production of alpha-hydroxy carbonyl compounds” (priority 2009, dated 2011)
“And” between values parts separate entries of the source, which are not always exact repeats. Equal entries are not always repeated.

Experiments:
[1] = test system: O=CC(=O)c1ccccc1; experiment: Kinetic constants from purified enzyme by Lineweaver-Burk plots; type: biochemical, Gluconobacter oxydans; settings: other: 40 mM KPB at optimal pH and 30 °C, substrate 0.025 to 10 mM
Method: (§1) Determination of pH and temperature optima and enzyme kinetics: The optimum pH for enzyme activities was determined by a modified method of Salusjärvi, T. et al., Appl. Microbiol. Biotechnol. 65:306-314 (2004) using the following buffer system (50 mM final concentration each): sodium acetate pH 4.5 - 6.5, potassium phosphate pH 6.5 - 8.0, Tris-HCl pH 8.0 - 10. Temperature optima for the biocatalysts were determined under standard reaction conditions at temperatures ranging from 20 - 80 °C. The Michaelis constant (Km) for the proteins was determined from purified enzyme by Lineweaver-Burk plots. Assays were performed at optimum pH for each enzyme and at 30 °C using the best substrate and a targeted substrate. The Km for each substrate was calculated using concentrations of 0.0025 to 10 mM, and the Km NAD(P)H and NAD(P) was calculated using concentrations of 0.01 to 0.5 mM
(§2) 2.9 Kinetic parameters of the keto carbonyl reductases: Kinetic constants were determined from purified enzyme by Lineweaver-Burk plots. The Km and Vmax values for the substrates were calculated using concentrations of 0.025 to 10 mM. The optimal pH values and temperatures for enzyme activities are also shown in Tab. 8. Table 8: Summary of kinetic parameters

[2] = test system: CCC(=O)C(C)=O; experiment: as above; type: biochemical, Gluconobacter oxydans; settings: other: 40 mM KPB at optimal pH and 30 °C, substrate 0.025 to 10 mM
Method: as §1, §2

[3] = biological target: T1, Gox0644 (Gluconobacter oxydans, UniProt Q5FT75); experiment: NADPH-dependent α-ketocarbonyl reductase activity assay (rate of decrease of NADPH at 340 nm); type: biochemical; settings: for Gox0644 U/mg*: Table 3, 10 mM substrate, 40 mM K-phosphate buffer pH 7.0, 0.05 mM NAD(P)H, 30 °C, U/mg = µmol x min^-1 x mg protein^-1
Method: Reactions were induced by addition of enzyme or substrate. One unit was defined as the amount of enzyme activity catalyzing the conversion of 1 µmol of pyridine nucleotide per min at 30 °C. NMR Analysis of Biotransformation Products: Biotransformations were extracted with equal volumes of CDCl3. and ^13C NMR spectra were recorded on a Bruker Avance 300 DPX spectrometer operating at 300 MHz for ^1H NMR and at 75 MHz for ^13C NMR, respectively.
Reactions were induced by addition of enzyme or substrate. One unit of activity was defined as the amount of enzyme activity catalyzing the conversion of 1 µmol of pyridine nucleotide per min at 30 °C.
The standard reaction mixture (1 ml) for the reduction reactions of substrates contained 10 mM substrate, 40 mM potassium phosphate buffer (K-phosphate buffer) pH 7.0, 0.05 mM NAD(P)H, and the enzyme unless otherwise noted. Reactions were induced by addition of enzyme or substrate. One unit of activity was defined as the amount of enzyme activity catalyzing the conversion of 1 µmol of pyridine nucleotide per min at 30 °C. […] Table 3: Enzymatic activities with α-diketones, α-ketoaldehydes and α-ketoesters

[4] = biological target: T1, Gox0644; experiment: Coupled-enzyme biotransformation with cofactor regeneration, product determined by NMR (regio- and stereoselectivity); type: biochemical
Method: (§3) Measurement of enzyme activity: NADPH-dependent α-ketocarbonyl reductases were assayed by a routine method used for NAD(P)-linked enzymes by recording the rate of decrease of NADPH at 340 nm (ε = 6.22 mM^-1 x cm^-1)) with substrates at 30 °C. The reaction mixture (1 ml) for reduction of α-ketocarbonyl substrates contained 10 mM substrate, 40 mM potassium phosphate buffer pH 7.0, 0.025 mM NAD(P)H and the enzyme. Reactions were induced by addition of enzyme or substrate. One unit was defined as the amount of enzyme activity catalyzing the conversion of 1 µmol of pyridine nucleotide per min at 30 °C. NMR Analysis of Biotransformation Products: Biotransformations were extracted with equal volumes of CDCl3. and ^13C NMR spectra were recorded on a Bruker Avance 300 DPX spectrometer operating at 300 MHz for ^1H NMR and at 75 MHz for ^13C NMR, respectively. Spectra were processed using Bruker TonSpin 1.3 for Windows software and calibrated to the residual solvent peak of CDCl3 (δH = 7.26 / δC = 77.0).
Determination of the absolute configuration of the biotransformation product 2-hydroxy-pentan-3-one using chiral NMR shift solvents: Chiral NMR shift reagent (R,R)- and (S,S)-bis-α-methylbenzylamine-para-methyl (BMBA-p-Me) was prepared with small modifications according to the method reported by Kobayashi, Y et al., Tetrahedron Lett. 44: 7489-7491 (2003). In brief, the method of Marshall, J.A. and Mikowski, A. M., Org. Lett. 8:4375-4378 (2006) was used to synthesize 1,3-dibromo-2-methylpropane from 1,3-dihydroxy-2-methylpropane. Diisopropylethylamine (25.5 g), triphenylphosphine (20.1 g) and CBr4 (25.5 g) were sequentially added to a stirring solution of […] in 100 ml CH2Cl2 at 0 °C. The reaction was stirred for 3-4 h at 0 °C and concentrated under reduced pressure to give a green-brown oil. The oil was dissolved in diethyl ether and water (100 ml each) and the aqueous layer was extracted three times with diethyl ether. The organic extracts were combined and washed with water and brine, and dried over MgSO4. The reaction was concentrated under reduced pressure and applied to flash chromatography on silica 60 (230-400 mesh, 100% cyclohexane). Fractions containing the 1,3-dibromo-2-methylpropane product were combined (as judged by Si-TLC [100% cyclohexene]) and concentrated under reduced pressure resulting in a brown-yellow oil. The dibromopropane oil was used for the synthesis of (R,R)- and (S,S)-BMBA-p-Me as described by (Kobayashi, Y. et al., Org. Lett. 4(3):411-414 (2002). The crude oil was distilled by Kugelrohr at 240 °C to give crude BMPA-p-Me (yellow oil). BMBA-p-Me was purified by HPLC using a C18 column (Waters Xterra, 250 x 4.6 mm) at a flow rate of 0.8 ml min^-1 and a 40 min linear gradient of 50-100 % MeOH at ambient temperature. Fractions were concentrated under reduced pressure and BMBA-p-Me was identified by ^1H-NMR (colorless hygroscopic oil).
Approximately 7.5 mg of the extracted product 2-hydroxy-pentan-3-one was added to 15 mg (R,R)- or (S,S)-BMBA-p-Me (dissolved in 200-300 µl CDCl3) and analyzed by ^13C NMR with the readout adjusted to 0.001 ppm/point (sw = 239 ppm, td = 512k) (Fiorentino, A. et al., Tetrahedron., 62:8952-8958 (2006)). The absolute configuration was determined based on the sign of ΔδRR-SS (δ(R,R)-BMBA-p-Me - δ(S,S)-BMBA-p-Me) for the α-carbons adjacent to the hydroxymethine unit as formulated in the following model shown in Scheme 3 (valid for saturated secondary alcohols of acyclic and cyclic compounds): [drawing 7]
Cofactor regeneration: A prerequisite for the production of α-hydroxycarbonyl compounds is the regeneration of the expensive coenzymes and the stability of the protein catalysts. By coupling two coenzyme-dependent enzyme reactions, NADPH can be continuously regenerated. […]

[5] = biological target: T2, Gox1615 (Gluconobacter oxydans, UniProt Q5FQJ0); experiment: NADPH-dependent α-ketocarbonyl reductase activity assay (rate of decrease of NADPH at 340 nm); type: biochemical; settings: for Gox1615 U/mg*: Table 3, 10 mM substrate, 40 mM K-phosphate buffer pH 7.0, 0.05 mM NAD(P)H, 30 °C, U/mg = µmol x min^-1 x mg protein^-1; for Specific Activity (U/mg)*: Table 5, cofactor NADPH, U/mg = µmol/mg·min
T2 sequence (Q5FQJ0 1-332): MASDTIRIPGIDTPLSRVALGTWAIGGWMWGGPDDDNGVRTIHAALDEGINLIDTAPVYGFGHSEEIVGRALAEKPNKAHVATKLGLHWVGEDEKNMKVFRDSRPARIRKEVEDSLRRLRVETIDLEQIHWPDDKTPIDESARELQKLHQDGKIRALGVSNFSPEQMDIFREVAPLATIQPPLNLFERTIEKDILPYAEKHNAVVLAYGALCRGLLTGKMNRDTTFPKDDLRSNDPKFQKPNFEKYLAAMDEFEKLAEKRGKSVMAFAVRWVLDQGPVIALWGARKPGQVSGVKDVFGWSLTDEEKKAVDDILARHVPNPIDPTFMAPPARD
Method: as §3
NADPH-dependent α-ketocarbonyl reductases were assayed by a routine method used for NAD(P)-linked enzymes by recording the rate of decrease of NADPH at 340 nm (ε = 6.22 mM^-1.cm^-1) with substrates at 30 °C. The reaction mixture (1 ml) for reduction of α-ketocarbonyl substrates contained 10 mM substrate, 40 mM potassium phosphate buffer pH 7.0, 0.025 mM NADPH, and the enzyme. Reactions were induced by addition of enzyme or substrate. One unit of activity was defined as the amount of enzyme activity catalyzing the conversion of 1 µmol of pyridine nucleotide per min at 30 °C.
Purified NAD(P)-dependent oxidoreductases were assayed at 30 °C by a routine method used for NAD(P)-linked enzymes by recording the rate of decrease of NAD(P)H at 340 nm (ε = 6.22 mM^-1˙cm^-1) with substrates capable of reduction reactions. The standard reaction mixture (1 ml) for the reduction reactions of substrates contained 10 mM substrate, 40 mM potassium phosphate buffer (K-phosphate buffer) pH 7.0, 0.05 mM NAD(P)H, and the enzyme unless otherwise noted. Reactions were induced by addition of enzyme or substrate. One unit of activity was defined as the amount of enzyme activity catalyzing the conversion of 1 µmol of pyridine nucleotide per min at 30 °C. Measurement of the protein content was performed by the method of Bradford (Bradford M.M., Anal. Biochem. 72:248-254 (1976)). Table 3: Enzymatic activities with α-diketones, α-ketoaldehydes and α-ketoesters

[6] = biological target: T1, Gox0644; experiment: Kinetic constants from purified enzyme by Lineweaver-Burk plots; type: biochemical
Method: as §1, §2

[7] = biological target: T2, Gox1615; experiment: as above; type: biochemical
Method: as §1, §2

[8] = substrate: CCC(=O)C(C)=O; experiment: as above; type: biochemical, Gluconobacter oxydans; settings: other: 40 mM KPB at optimal pH and 30 °C, substrate 0.025 to 10 mM; remark: listed apart in the source
Method: as §1, §2

[9] = substrate: CCCC(=O)C(C)=O; experiment: as above; type: biochemical, Gluconobacter oxydans; settings: other: 40 mM KPB at optimal pH and 30 °C, substrate 0.025 to 10 mM
Method: as §1, §2

[10] = substrate: O=CC(=O)c1ccccc1; experiment: as above; type: biochemical, Gluconobacter oxydans; settings: other: 40 mM KPB at optimal pH and 30 °C, substrate 0.025 to 10 mM; remark: listed apart in the source
Method: as §1, §2

[11] = substrate: CC(=O)C=O; experiment: as above; type: biochemical, Gluconobacter oxydans; settings: other: 40 mM KPB at optimal pH and 30 °C, substrate 0.025 to 10 mM
Method: as §1, §2

Gox0644 (Gluconobacter oxydans 621H)
Km [1]: 4.8 mM | Vmax [1]: 74.7 µmol/min x mg | Km [2]: 5.7 mM | Vmax [2]: 69.6 µmol/min x mg

CC(=O)C(=O)c1ccccc1 [1-phenyl-1,2-propanedione]
Gox0644 U/mg* [3]: 75.4 U/mg | activity ([3]; substrates showing the highest activities): 75 U/mg protein | Product (stereoselective reduction) ([4]; NMR with chiral solvent BMBA-p-Me): 1-phenyl-2R-hydroxy-propanone | Product (regioselective reduction) ([4]; determined by NMR analysis): 1-phenyl-2-hydroxy-propanone and 1-phenyl-2-hydroxy-1-propanone | Gox1615 U/mg* [5]: 5.4 U/mg | Specific Activity (U/mg)* [5]: 5.4 U/mg

O=CC(=O)c1ccccc1 [phenylglyoxal]
Gox0644 U/mg* [3]: 74.7 U/mg | Vmax [6]: 75 U/mg protein | Gox1615 U/mg* [5]: 19.1 U/mg | Specific Activity (U/mg)* [5]: 19.1 U/mg

CC(=O)C=O [methylglyoxal]
Gox0644 U/mg* [3]: 3.4 U/mg | Vmax [7]: 23 U/mg protein | Gox1615 U/mg* [5]: 23.0 U/mg | Specific Activity (U/mg)* [5]: 23.0 U/mg

B1: Gox1615 (Gluconobacter oxydans 621H) (protein)
chain: T2 sequence (Q5FQJ0 1-332)
Km [8]: 4.0 mM | Vmax [8]: 7.0 µmol/min x mg | Km [9]: 4.0 mM | Vmax [9]: 7.0 U/mg protein | Km [10]: 4.3 mM | Vmax [10]: 23 U/mg protein | Km [11]: 4.3 mM | Vmax [11]: 23.0 µmol/min x mg
